One may read the pIC50 as −log10 of the IC50, conventionally taken in molar units.

Drawing on patent US8404670B2 (Sunovion Pharmaceuticals Inc., priority 2009, dated 2013), this text covers IC50 for 51 compounds.

pIC50: −log10 of the molar value.

The target in the assay is T1, human histamine H3 receptor (Homo sapiens, UniProt Q9Y5N1).
T1 construct: host or cells: cells expressing the human H3 receptor
Nature of the assay: H3 GTPγS assay (SPA method), histamine H3 in vitro assay. Particulars: GTPγ[35S] binding to membranes of cells expressing human H3; antagonist mode with R-γ-Me-Histamine at EC80 (30 nM); in one embodiment HCl salts tested; read-out: Potency (functional potency as indicated by IC50). The format is biochemical. The method, then:
H3 GTPγS assay (SPA method) was performed at EuroScreen (Belgium, ES-392-C) using conventional methods. Briefly, cells expressing the human histamine H3 receptor were homogenized in 15 mM Tris-HCl pH 7.5, 2 mM MgCl2, 0.3 mM EDTA, and 1 mM EGTA. Membranes were washed twice in the above tris buffer, collected by centrifugation (40,000×g, 25 min), and re-suspended in 75 mM Tris-HCl pH 7.5, 12.5 mM MgCl2, 0.3 mM EDTA, 1 mM EGTA, and 250 mM sucrose. Membranes were frozen in liquid nitrogen until use. On the day of the assay, membranes were thawed and diluted in assay buffer (20 mM HEPES pH 7.4, 100 mM NaCl, 10 μg/ml saponin, 1 mM MgCl2) to give 500 μg/ml and mixed (v/v) with GDP in assay buffer for a final GDP concentration of 10 μM and incubated on ice for at least 15 min. PVT-WGA beads (Amersham, RPNQ001) were diluted in assay buffer at 50 mg/mL and mixed with GTPγ[^35S] (Amersham, SJ1308) diluted in assay buffer to give ˜25,000 dpm/10 μL and mixed vol/vol just before the start of the reaction. The reaction was started by adding 50 μL of test compound, 20 μL of the membranes:GDP mix, 10 μL of buffer, and 20 μL of the GTPγ[^35S]:beads mix in a 96 well plate Optiplate™ (PerkinElmer, 6005299) covered with topseal (TopCount™, PerkinElmer), mixed with an orbital shaker for 2 min, incubated for 1 hour at room temperature, centrifuged for 10 min at 2000 rpm, incubated for 1 h at room temperature, and counted for 1 min in a TopCount™ reader (PerkinElmer). Dose response curves and IC50 values (concentration to inhibit the reaction by 50%) were calculated by nonlinear regression using XLfit software (IDBS).
For antagonists testing, 10 μL of a reference agonist (R-γ-Me-Histamine) instead of 10 μL buffer was added at a concentration corresponding to the EC80 (30 nM). Control ligands were R-γ-Me-Histamine (Tocris, 0569), Imetit (Sigma, I-135), Thioperamide (Tocris, 0644), and Clobenpropit (Tocris, 0754) diluted in assay buffer.
The compounds provided herein were tested in the histamine H3 in vitro assay. In one embodiment, the respective HCl salts of the compounds provided herein were prepared using standard chemical procedures and tested in the histamine H3 in vitro assay.

T1 sequence (Q9Y5N1 whole entry): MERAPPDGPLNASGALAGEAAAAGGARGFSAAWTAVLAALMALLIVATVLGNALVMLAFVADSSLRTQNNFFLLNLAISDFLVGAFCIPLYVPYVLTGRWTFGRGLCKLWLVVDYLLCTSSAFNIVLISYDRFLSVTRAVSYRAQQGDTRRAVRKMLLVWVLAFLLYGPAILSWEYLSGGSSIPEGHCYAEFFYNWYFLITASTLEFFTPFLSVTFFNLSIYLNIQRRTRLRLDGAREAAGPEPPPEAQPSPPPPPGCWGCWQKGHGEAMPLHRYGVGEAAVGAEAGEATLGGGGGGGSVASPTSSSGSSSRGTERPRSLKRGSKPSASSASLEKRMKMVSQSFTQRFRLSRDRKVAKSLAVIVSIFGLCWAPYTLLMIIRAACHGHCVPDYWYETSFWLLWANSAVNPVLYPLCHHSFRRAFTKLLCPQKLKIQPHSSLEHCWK

On to `CC1CCC(N2CCc3nc4cc(-c5ccc(C#N)cc5)ccc4n3CC2)CC1` (mixture of isomers) [Compound 37, cis/trans-4-(3-(4-methylcyclohexyl)-2,3,4,5-tetrahydro-1H-[1,4]diazepino[1,7-a]benzimidazol-9-yl)benzonitrile], for which the pIC50 is at most 6.00.
As to `CC1CCC(N2CCc3nc4cc(-c5ccc(C#N)cc5)ccc4n3CC2)C1` (racemic) [Compound 34, rac-cis/trans-4-(3-(3-methylcyclopentyl)-2,3,4,5-tetrahydro-1H-[1,4]diazepino[1,7-a]benzimidazol-9-yl)benzonitrile], the pIC50 was at least 7.00.
Next, `CC1CCCC1N1CCc2nc3cc(-c4ccc(C#N)cc4)ccc3n2CC1` (racemic) [Compound 35, rac-cis/trans-4-(3-(2-methylcyclopentyl)-2,3,4,5-tetrahydro-1H-[1,4]diazepino[1,7-a]benzimidazol-9-yl)benzonitrile]: at least 8.00; `c1cc2c(cc1N1CCN(C3CCOC3)CC1)nc1n2CCN(C2CCC2)CC1` (racemic) [Compound 101, rac-3-cyclobutyl-9-(4-(tetrahydrofuran-3-yl)piperazin-1-yl)-2,3,4,5-tetrahydro-1H-[1,4]diazepino[1,7-a]benzimidazole]: at least 8.00.
`NCc1ccc(-c2ccc3c(c2)nc2n3CCN(C3CCC3)CC2)cc1` [Compound 1, 3-cyclobutyl-9-(4-(aminomethyl)phenyl)-2,3,4,5-tetrahydro-1H-[1.4]diazepino[1,7-a]benzimidazole]: the pIC50 is at least 8.00.
The same measure for `N#Cc1ccc(-c2ccc3c(c2)nc2n3CCN(C3CCC3)CC2)cc1` [Compound 2]: at least 8.00; for `CC(=O)Nc1ccc(-c2ccc3c(c2)nc2n3CCN(C3CCC3)CC2)cc1` [Compound 3]: at least 8.00.
The same measure for `c1cc2cc(-c3ccc4c(c3)nc3n4CCN(C4CCC4)CC3)ccc2[nH]1` [Compound 4]: at least 7.00; for `CC(C1CCC1)N1CCc2nc3cc(-c4ccc(CN)cc4)ccc3n2CC1` (stereo not drawn) [Compound 5]: at least 7.00.
Next, `CC(C1CCC1)N1CCc2nc3cc(-c4ccc(C#N)cc4)ccc3n2CC1` (stereo not drawn) [Compound 6]: at least 7.00.
In the case of `CC(=O)Nc1ccc(-c2ccc3c(c2)nc2n3CCN(C(C)C3CCC3)CC2)cc1` (stereo not drawn) [Compound 7], the pIC50 was at least 6.00.
Regarding `CC(=O)Nc1ccc(-c2ccc3c(c2)nc2n3CCN(C3CCN(C)CC3)CC2)cc1` [Compound 9, N-(4-(3-(1-methylpiperidin-4-yl)-2,3,4,5-tetrahydro-1H-[1,4]diazepino[1,7-a]benzimidazol-9-yl)phenyl)acetamide], the pIC50 is at least 6.00.
Next, `CC(C1CCC1)N1CCc2nc3cc(-c4ccc5[nH]ccc5c4)ccc3n2CC1` (stereo not drawn) [Compound 10]: at most 6.00; `CC(C1CCC1)N1CCc2nc3cc(Cl)ccc3n2CC1` (stereo not drawn) [Compound 11]: at most 6.00; `CN1CCC(N2CCc3nc4cc(-c5ccc6[nH]ccc6c5)ccc4n3CC2)CC1` [Compound 13]: at most 6.00.
For `Clc1ccc2c(c1)nc1n2CCN(Cc2cnc[nH]2)CC1` [Compound 15], the pIC50 is at most 6.00.
Turning to `CN1CCC(N2CCc3nc4cc(-c5ccc(CN)cc5)ccc4n3CC2)CC1` [Compound 16], the pIC50 is at most 6.00.
Next, `NCc1ccc(-c2ccc3c(c2)nc2n3CCN(Cc3cnc[nH]3)CC2)cc1` [Compound 17]: at most 6.00; `N#Cc1ccc(-c2ccc3c(c2)nc2n3CCN(Cc3cnc[nH]3)CC2)cc1` [Compound 18]: at most 6.00.
For the compound `CC(=O)Nc1ccc(-c2ccc3c(c2)nc2n3CCN(Cc3cnc[nH]3)CC2)cc1` [Compound 19], the pIC50 is at most 6.00.
On to `c1ncc(CN2CCc3nc4cc(-c5ccc6[nH]ccc6c5)ccc4n3CC2)[nH]1` [Compound 20], for which the pIC50 is at most 6.00.
Regarding `Brc1ccc2c(c1)nc1n2CCN(C2CCC2)CC1` [Compound 21], the pIC50 was at least 6.00.
Next, `N#Cc1ccc(-c2ccc3c(c2)nc2n3CCN(C3CCC3)CC2)cc1F` [Compound 22]: at least 8.00.
With `c1cnc(-c2ccc3c(c2)nc2n3CCN(C3CCC3)CC2)cn1` [Compound 24], the pIC50 was at least 8.00.
The same measure for `Cc1nn(C)c(C)c1-c1ccc2c(c1)nc1n2CCN(C2CCC2)CC1` [Compound 26]: at least 6.00; for `N#Cc1ccc(-c2ccc3c(c2)nc2n3CCN(C3CCC3)CC2)cn1` [Compound 27, 5-(3-cyclobutyl-2,3,4,5-tetrahydro-1H-[1,4]diazepino[1,7-a]benzimidazol-9-yl)-picolinonitrile]: at least 8.00; for `c1cnc2[nH]cc(-c3ccc4c(c3)nc3n4CCN(C4CCC4)CC3)c2c1` [Compound 31]: at least 8.00.
The same measure for `CC(C)N1CCc2nc3cc(-c4ccc(C#N)cc4)ccc3n2CC1` [Compound 32, 4-(3-isopropyl-2,3,4,5-tetrahydro-1H-[1,4]diazepino[1,7-a]benzimidazol-9-yl)benzonitrile]: at least 7.00; for `N#Cc1ccc(-c2ccc3c(c2)nc2n3CCN(C3CCOCC3)CC2)cc1` [Compound 38]: at least 7.00; for `N#Cc1ccc(-c2ccc3c(c2)nc2n3CCN(CC3CC3)CC2)cc1` [Compound 39]: at least 7.00.
On to `Brc1ccc2nc3n(c2c1)CCN(C1CCC1)CC3` [Compound 40], for which the pIC50 was at least 7.00.
Next, `N#Cc1ccc(-c2ccc3nc4n(c3c2)CCN(C2CCC2)CC4)cc1` [Compound 41]: at least 6.00; `CC(=O)Nc1ccc(-c2ccc3nc4n(c3c2)CCN(C2CCC2)CC4)cc1` [Compound 42]: at least 6.00.
For `c1cc2cc(-c3ccc4nc5n(c4c3)CCN(C3CCC3)CC5)ccc2[nH]1` [Compound 43], the pIC50 is at least 6.00.
Next, `NCc1ccc(-c2ccc3nc4n(c3c2)CCN(C2CCC2)CC4)cc1` [Compound 44]: at least 7.00.
Regarding `c1cc2nc3n(c2cc1-c1cn[nH]c1)CCN(C1CCC1)CC3` [Compound 49, 3-cyclobutyl-9-(1H-pyrazol-4-yl)-2,3,4,5-tetrahydro-1H-[1,4]diazepino[1,7-a]benzimidazole], the pIC50 was at least 6.00.
The same measure for `CNC(=O)c1ccc(Oc2ccc3c(c2)nc2n3CCN(C3CCC3)CC2)nc1` [Compound 50, 6-(3-cyclobutyl-2,3,4,5-tetrahydro-1H-[1,4]diazepino[1,7-a]benzimidazol-9-yloxy)-N-methylnicotinamide]: at least 8.00; for `c1cnc(Oc2ccc3c(c2)nc2n3CCN(C3CCC3)CC2)cn1` [Compound 51]: at least 7.00.
Turning to `N#Cc1ccc(COc2ccc3c(c2)nc2n3CCN(C3CCC3)CC2)cc1` [Compound 53], the pIC50 is at least 8.00.
The same measure for `N#Cc1ccc2c(c1)nc1n2CCN(C2CCC2)CC1` [Compound 54]: at least 6.00.
On to `O=C(c1ccc2c(c1)nc1n2CCN(C2CCC2)CC1)N1CCOCC1` [Compound 56], for which the pIC50 is at least 7.00.
The same measure for `CN(C)C(=O)c1ccc2c(c1)nc1n2CCN(C2CCC2)CC1` [Compound 57]: at least 6.00; for `CN1CCN(C(=O)c2ccc3c(c2)nc2n3CCN(C3CCC3)CC2)CC1` [Compound 58]: at least 6.00.
For `O=C(c1ccc2c(c1)nc1n2CCN(C2CCC2)CC1)N1CCCC1` [Compound 60], the pIC50 was at least 7.00.
The same measure for `N#Cc1ccc(NC(=O)c2ccc3c(c2)nc2n3CCN(C3CCC3)CC2)cc1` [Compound 61, 3-cyclobutyl-N-(4-cyanophenyl)-2,3,4,5-tetrahydro-1H-[1,4]diazepino[1,7-a]benzimidazole-9-carboxamide]: at least 7.00; for `Fc1ccc(CNc2ccc3c(c2)nc2n3CCN(C3CCC3)CC2)cc1` [Compound 62]: at least 7.00.
The same measure for `N#Cc1ccc(CNc2ccc3c(c2)nc2n3CCN(C3CCC3)CC2)cc1` [Compound 63]: at least 7.00.
As for `COc1ccnc(Nc2ccc3c(c2)nc2n3CCN(C3CCC3)CC2)n1` [Compound 64], the pIC50 was at least 7.00.
The same measure for `c1cnc(Nc2ccc3c(c2)nc2n3CCN(C3CCC3)CC2)cn1` [Compound 65, 3-cyclobutyl-N-(pyrazin-2-yl)-2,3,4,5-tetrahydro-1H-[1,4]diazepino[1,7-a]benzimidazol-9-amine]: at least 7.00.
Next, `c1cn(-c2ccc3c(c2)nc2n3CCN(C3CCC3)CC2)cn1` [Compound 66]: at least 8.00.
The same measure for `c1ccc2c(c1)ncn2-c1ccc2c(c1)nc1n2CCN(C2CCC2)CC1` [Compound 68]: at least 8.00.
